The values below come from patent US20090054403A1, “Treatment of Post-Traumatic Stress Disorder” (priority 2007, published 2009).

A short description of series [1]: Plasma levels of nepicastat and N-acetyl metabolite in dogs, 2 mg/kg b.i.d. The format is in vivo, beagle dogs. To be noted: after nepicastat 2 mg/kg bid, any of the days. On the procedure: Male Beagle dogs (Marshall farms, North Rose, N.Y.) weighing between 9-16 kg were used in the study. The animals were allowed water ad libitum and given food once daily at ˜10.00 AM. Animals were randomly assigned to one of the following treatment groups (n=8/group): placebo (empty capsule), or nepicastat at 2 mg/kg b.i.d (4 mg/kg/day). Each animal received 2 doses daily, morning and afternoon (8-10 hours apart). Daily blood samples (10 ml) were drawn 6 h after the AM dose for measurement of plasma levels of nepicastat and catecholamines. The blood was collected in tubes containing heparin and glutathione and centrifuged at −4° C. within 1 h of collection. The plasma was separated and divided into two samples, one for the measurement of plasma catecholamines and the other for analysis of nepicastat.
Plasma NE, DA and EPI were anaylysed by HPLC using electrochemical detection. Plasma concentration of nepicastat was determined by HPLC using electrochemical detection.

For another series, the system named is serum T3 and T4 levels. Description: Thyroid function (serum T3, T4) in iodine-deficient rats, 10 days. The format is in vivo, Sprague-Dawley rats. To be noted: for effect on serum T3 and T4 levels: nepicastat 2.0 and 6.2 mg/kg b.i.d., methimazole 1 mg/kg b.i.d., po, 10 days. On the procedure: Male Sprague-Dawley rats, weighing 180-200 grams, were fed an iodine deficient diet (Purina, 5891C, Lot 1478, 0.066±0.042 mg iodine/kg sample) ad libitum 14 days prior to treatment. Animals were weighed and randomly assigned to one of the following treatment groups (n=12 per group): Nepicastat at 2.0 mg/kg, Nepicastat at 6.2 mg/kg, R, Methimazole at 1 mg/kg, or vehicle at 1 ml/kg. Each group of rats was dosed orally in the evening and the following morning, approximately 12 hours apart, for 10 consecutive days.
Orbital blood samples were taken at day—3, 0, 3, 7, and 9 (day 0 was the first day of dosing). Serum samples were analyzed for T3 and T4 levels using a radioimmunoassay.
To statistically evaluate changes in T3 and T4 levels, a change from baseline was calculated from the day-3 time point. A non-parametric two-way within subject analysis of variance (ANOVA) was conducted. Also a one-way ANOVA was performed to detect if a significant difference from control occurred. Pairwise analyses between controls and each treatment group were carried out using Fisher's LSD strategy to control the experiment-wise error rate. For statistical analysis of catecholamine levels, a one-way ANOVA with factor DOSE was performed. Pairwise analyses between treated and controls at each dose were carried out using Fisher's LSD strategy to control the experiment-wise error rate.

Another series has as its system blood pressure. Description: Radio-telemetry blood pressure in SHR, up to 30 days. The format is in vivo. Particulars: 1 mg/kg, p.o.
The subject of another series is parkinsonian symptoms. In words: Parkinsonian clinical rating scale (CRS) in MPTP-lesioned monkeys. The format is in vivo, squirrel monkeys (Saimiri sciureus). The procedure: A total of 24 squirrel monkeys (Saimiri sciureus), fourteen females and ten males were used in this study. The twenty-four animals were randomly assigned to one of four treatment groups, with 6 animals per group. The groups consisted of the following (1) group A: placebo (2) group B: 1 mg/kg/day; (3) group C: 4 mg/kg/day; and (4) group D: 10 mg/kg/day. In Group B, one animal died acutely following MPTP-lesioning, and was not replaced.
Animals were lesioned by the administration of MPTP at a concentration of 2.0 mg/kg (free-base) via subcutaneous injection to achieve a parkinsonian state (see FIGS. 151-156). A post-MPTP lesioning behavioral assessment was carried out 2 to 4 weeks after the last MPTP-Iesioning. Locomotor activity was monitored by IRAM in 60-minute sessions for 3 to 5 days. Clinical behavior (CAS) was assessed by one to three individuals rating over a period of 3 to 5 days.
Animals were tested for response to L-Dopa and the efficacy of drug nepicastat. Testing was carried out 4 to 12 weeks after the last MPTP dose. Twenty-tour squirrel monkeys were randomly assigned to 4 groups; Group A (6 animals) received placebo (water) treatment; Group B (5 animals) received drug nepicastat at 1 mg/kg/day (0.5 mg/kg twice daily); Group C (6 animals) received 4 mg/kg/day (2 mg/kg twice daily); and Group D (6 animals) received 10 mg/kg/day (5 mg/kg twice daily).
L-Dopa was administered at a concentration of either 2.5, 5, or 7.5 mg/kg by oral gavage twice daily (at 10 am and 2 pm) for 7 consecutive days. Behavior was determined by IRAM and CRS. Clinical rating was carried out 60 to 90 minutes following the 10 am morning dose on the last 4 days of treatment. Raters (one to three individuals) were blinded to the different treatment groups. IRAM assessment were preformed for 90 minutes immediately following drug administration at 2 pm on the last 2 to 5 days of drug treatment. There was a minimum 2 day washout period between each treatment dose.
Drug nepicastat or water (as placebo) was administered for 12 days following a minimum 2 day washout after L-Dopa dosing. Drug was administered twice daily at 10 am and 2 pm by oral gavage. Behavior was rated by IRAM and CRS. The CRS was conducted in the morning, 60 to 90 minutes after the 10 am dose of nepicastat on the last 5 days of drug treatment. Raters (one to three individuals) were blinded to the different treatment groups. IRAM assessments were preformed for 90 minutes immediately following drug administration at 2 pm on the last 5 days of drug treatment.
Eight parkinsonian features were rated in each animal and the total score was derived from the sum of these eight features. […]

Series [2] relates to mean arterial pressure and heart rate. In words: Heart rate and mean arterial pressure in restrained SHR with SCH-23390 pretreatment. The format is in vivo, spontaneous hypertensive rats. To be noted: 200 μg/kg iv, 15 min post-iv period. An excerpt:
Male, spontaneous hypertensive rats (280-345 g; Charles River Labs, Kingston, N.Y.) were fasted overnight then anesthetized with ether. A femoral artery and femoral vein were cannulated with PE50 tubing for recording of blood pressure and administration of compounds, respectively. Animals were then placed in MAYO restrainers and their feet loosely taped to the restrainer. Heparinized saline (50 units sodium heparin/ml) was used to maintain patency of each cannula throughout the experiment. The following parameters were continuously recorded using Modular Instruments MI^2 BioReport™ software installed on an IBM personal computer: mean arterial pressure (MAP), heart rate (HR), and the change from baseline for each parameter at specified time points in the experiment.
All compounds were dissolved on the day of use. nepicastat was dissolved in deionized water (vehicle) to a free base concentration of 1 mg/ml. Oral dosing volume for nepicastat or vehicle was 10 ml/kg. SCH-23390 was dissolved in saline (vehicle) to a free base concentration of 0.2 mg/ml. […] or saline were administered intravenously as a bolus in a volume of 1.0 ml/kg followed by 0.2 ml flush of isotonic saline.
Following surgical preparation, each animal was allowed a minimum one hour recovery period. Animals were randomly assigned to four treatment groups: vehicle (iv)/vehicle (po); vehicle (iv)/nepicastat (po); SCH-23390 (iv)/vehicle (po); or SCH-23390 (iv)/nepicastat (po). Once animals were stabilized (minimum one hour), baseline blood pressure and heart rate was determined by taking an average of each parameter over a 15 min period of time. Once baseline blood pressure and heart rate were established, animals were dosed intravenously with either SCH-23390 (200 μg/kg) or vehicle (saline, 1 ml/kg). Fifteen minutes later, animals were orally dosed with either nepicastat (10 mg/kg) or vehicle (deionized water, 10 ml/kg).
Recorded parameters were measured 15 min prior to intravenous dosing to establish baseline blood pressure and heart rate. Recorded parameters were then measured at 5, 10, and 15 min following intravenous administration of SCH-23390 or vehicle. Following oral administration of nepicastat or vehicle, recorded parameters were measured at 15, 30, 60, 90, 120, 150, 180, 210, and 240 min.
At the end of the experiment, each animal was anesthetized with halothane and euthanized via decapitation. The cortex, left ventricle (apex), and mesenteric artery were dissected out, weighed, and fixed in 0.4 M perchloric acid. […] Blood pressure and heart rate were analyzed separately. The change from baseline for blood pressure and heart rate were analyzed by an analysis of variance (ANOVA) with effects for treatment, time, and their interaction. […]

Series [3] relates to blood pressure, heart rate, motor activity. Description: Radio-telemetry blood pressure, heart rate, motor activity in normotensive rats, 7 days. The format is in vivo, normotensive Wistar rats (Crl:COBS(WI)BR). To be noted: 10 mg/kg po. The procedure:
Male Crl:COBS(WI)BR rats of 15 weeks old were used. Twenty-four rats were chronically implanted with telemetry implants (TA11PA-C40, Data Sciences, Inc., St. Paul, Minn.) for measurement of arterial blood pressure, heart rate and motor activity. The rat was anesthetized with pentobarbital sodium (60 mg/kg, ip) and its abdomen shaved. Under aseptic conditions, an incision was made on midline. The abdominal aorta was exposed, and cannulated with the catheter of a telemetry transmitter unit. After the transmitter was sutured to the abdominal musculature, the skin was closed. Each rat was allowed to recover for at least 2 weeks before being subjected to drug administration. Three days prior to the start of the experiment, the rats were randomly divided into 4 treatment groups: Vehicle (p.o.), Hydralazine (10 mg/kg, p.o.), nepicastat (30 mg/kg, p.o.), nepicastat (100 mg/kg, p.o.).
Systolic blood pressure (SBP), diastolic blood pressure (DBP), mean blood pressure (MBP), heart rate (HR), and motor activity (MA) were monitored. After the pre-dose values for these parameters were established, respective groups of rats received a 7 day daily treatment of vehicle, nepicastat or hydralazine.
Both nepicastat and hydralazine were prepared in water with traces of Tween 80. All doses were given orally to the rat in 10 ml/kg and were expressed as free base equivalents.
A computerized data collection system was used to continuously collect data on SBP, DBP, MBP, HR, and MA. Data on each rat were collected every 5 min. for 10 sec. These were then averaged hourly and standard errors of the mean (SE) calculated. In this report, only data on MBP, HR and MA were presented. […] Body weights were recorded daily.

Each structure is given as a SMILES string. “Also recorded” adds a separate entry of the source.

As to `CC(=O)NCc1c[nH]c(=S)n1[C@H]1CCc2c(F)cc(F)cc2C1` [N-acetyl metabolite of nepicastat], the “plasma levels of the N-acetyl metabolite” value in series [1] is listed as “No significant levels”.

As to `Cn1cc[nH]c1=S` [Methimazole, methimazole], the “reduction in serum levels of T3” value is on record as 31% in the series with serum T3 and T4 levels (day 3, 4 h post-dose); 42% with serum T3 and T4 levels (day 7, 4 h post-dose); 44% in the series with serum T3 and T4 levels (day 9, 4 h post-dose). The “reduction in serum levels of T4” value is 46% in the series on serum T3 and T4 levels (day 3, 4 h post-dose); 58% with serum T3 and T4 levels (day 7, 4 h post-dose). The “T4 levels vs vehicle” value in the series with serum T3 and T4 levels (day nine) is “only marginally (p<0.10) lower”. Moreover, the “effect on serum T3 and T4 levels” value in the series on serum T3 and T4 levels is listed as “significantly (p<0.05) lowered T3 levels on all treatment days”; in the series with serum T3 and T4 levels (listed as methimazole), “significantly reduced”.

Consider `CCOC(=O)[C@H](CCc1ccccc1)N[C@@H](C)C(=O)N1CCC[C@H]1C(=O)O` [enalapril, reference compound], for which, in the series with blood pressure, the “effect on blood pressure, enalapril alone” value is listed as “failed to lower blood pressure” and the “reduction in left ventricular mass, enalapril alone” value was “did not occur”.

Turning to `N[C@@H](Cc1ccc(O)c(O)c1)C(=O)O` [L-Dopa, reference compound], the “CRS / parkinsonian symptoms compared to post-MPTP (pre-treatment) state” value with parkinsonian symptoms (L-Dopa 2.5 mg/kg) was “No groups of animals demonstrated significant improvement; also recorded: no significant effect”; with parkinsonian symptoms (L-Dopa 5 and 7.5 mg/kg, except Group B at 5 and Group C at 7.5 mg/kg) it was “significant improvement; also recorded: significant effect”.

For `CN1CCc2cc(Cl)c(O)cc2[C@@H](c2ccccc2)C1` [SCH-23390, reference compound], in series [2], the “decrease in mean arterial pressure” value came to 5±1 mmHg.

Turning to `NNc1nncc2ccccc12` [Hydralazine, reference compound], the “time in which hypotensive effect subsided” value in series [3] amounted to 10 h. Besides, the “maximal decrease in MBP” value in series [3] (within 1 hr after dosing on day 1) is reported as −24 mmHg.
